The experiment is described as follows: Antioxidant activity in brain homogenate assessed as drug level require to inhibit 50% of spontaneous lipid peroxidation relative to control. It counts as functional, tissue-based.
Regarding `O=c1c(O)c(-c2ccc(O)c(O)c2)oc2cc(O)cc(O)c12`, the Activity was 7.6 µg/mL. To `COc1cc(O)c(C(=O)CCc2ccc(O)cc2)c(OC)c1` belongs 4.7 µg/mL; to `COc1ccc(CCC(=O)c2c(OC)cc(O)c([C@H](c3ccc(O)cc3)[C@@H](C)[C@H](C)Cc3ccc(O)cc3)c2O)cc1` (relative stereo), 4.8 µg/mL. To `Cc1c(C)c2c(c(C)c1O)CC[C@@](C)(CCC[C@H](C)CCC[C@H](C)CCCC(C)C)O2` belongs 12.1 µg/mL; to `COc1ccc(CCC(=O)c2c(OC)cc(O)c([C@@H](c3ccc(O)cc3)[C@@H](C)[C@H](C)Cc3ccc(O)cc3)c2O)cc1` (relative stereo), 5.5 µg/mL; to `COc1ccc(CCC(=O)c2c(O)cc(O)cc2OC)cc1`, 6.9 µg/mL.

The values are drawn from ChEMBL document CHEMBL1144132, “Dihydrochalcones and flavonolignans from Iryanthera lancifolia” (J Nat Prod, 1999).
